Experimental data as given in patent US20260159519A1, “IMIDAZOPYRIDAZINE SUBSTITUTED BENZENE RING DERIVATIVE, PREPARATION METHOD, PHARMACEUTICAL COMPOSITION AND USE” (SHANGHAI SIMR BIOTECHNOLOGY CO., LTD., priority 2022, published 2026).

Legend:
[1] = biological target: T1, human α2-GABAA receptor (BZD site, membrane protein of HEK293 cells) (Homo sapiens, UniProt P18507+P47869); experiment: Radioligand competitive binding assay (3H-flunitrazepam) at the BZD site of the α2-GABAA receptor; details: competition with 1 nM 3H-flunitrazepam; Ki calculated from IC50; read-out: α2 Ki
T1 construct: expressed in transfected cells
Excerpt: (§1) α subunit, β subunit, and γ subunit are essential for the formation of a complete and functional GABAA receptor. In this example of the present disclosure, HEK293 cells stably expressing the human α1-GABAA receptor (α1-GABAAR) and α2-GABAA receptor (α2-GABAAR) were constructed and separately selected using the lipofection method (Felgner, P. L., et al. Proceedings of the National Academy of Sciences, 1987, 84: 7413-7417). The α1-GABAAR-HEK293 cell model simultaneously expressed the α1 subunit (for protein sequence, see GenBank accession No.: NM_000806.5), the […] (for protein sequence, see GenBank accession No.: NM_000814.5), and the […] (for protein sequence, see GenBank accession No.: NM_000816.3). The α2-GABAAR-HEK293 cell model simultaneously expressed the α2 subunit (for protein sequence, see GenBank accession No.: NM_000807.4), the β3 subunit (for protein sequence, see GenBank accession No.: NM_000814.5), and the γ2 subunit (for protein sequence, see GenBank accession No.: NM_000816.3).
(§2) The above cell lines were subcultured. The α2-GABAAR-HEK293 cells were expanded for testing the affinity of compounds to the benzodiazepine (BZD) site of the GABAA receptor. During the passage process, some of the α1-GABAAR-HEK293 cells and α2-GABAAR-HEK293 cells were suspended and plated on a slide pre-treated with Poly-D-Lysine for electrophysiological testing (method referenced from patent CN107344936A, paragraph 0586).
The affinity of the compounds for the α2-GABAA receptor was determined by competing for the binding of ^3H-flunitrazepam (isotope ^3H-labelled flunitrazepam) to the BZD site on the membrane protein of HEK293 cells stably expressing the human α2-GABAAR.
Membrane preparation: Cells were suspended in 50 mM Tris-HCl buffer (pH=7.4), homogenized 10 times for 20 seconds with a homogenizer on ice, and centrifuged at 1000 g for 10 minutes at 4° C. The supernatant was taken, and the above steps were repeated. The supernatant was centrifuged at 4° C. (33800 g; Thermo, rotor: A27-8×50) for 60 minutes. The precipitate was resuspended in Tris buffer (50 mM Tris-HCl, 10 mM MgCl2, 0.5 mM EDTA, and 10% glycerol). The protein content was determined (BCA (bicinchoninic acid) protein quantification assay based on copper ion reduction, with a BCA kit purchased from Pierce (Annoron (Beijing) Biotechnology Co., Ltd.)), and 1 mL aliquots were prepared and stored at −80° C.
Radioligand competitive binding assay: This assay was performed in a 200 μL system (96-well plate) containing 100 μL of cell membrane. The concentration of ^3H-flunitrazepam was 1 nM, and the concentrations of the test compounds were in the range of […]. Flumazenil was used as a control. 1 μL of 2 mM flumazenil (final […]) was added to each low signal control (low control, LC) well, and 1 μL of dimethyl sulfoxide was added to each high signal control (high control, HC) well. The final concentration of target membrane protein was […]. All sample stock solutions of test compounds were 10 mM dimethyl sulfoxide solutions. All the samples were diluted to a concentration of 0.2 mM with dimethyl sulfoxide, and then subjected to a 4-fold serial dilution for a total of 8 working concentration gradients. The 96-well plate was sealed with a sealing membrane and then incubated on a shaker at room temperature for 1 hour. Meanwhile, a GF/C filter plate was soaked in plate soaking buffer (0.3% PEI (polyethyleneimine, purchased from Sigma-Aldrich, model: P314), stored at 4° C.) for at least 0.5 hours. After the binding incubation was completed, the cells were harvested onto the GF/C filter plate using a cell harvester and washed four times with plate washing buffer (50 mM Tris-HCl, pH 7.4, stored at 4° C.). After drying in an oven at 50° C. for 1 hour, the dried GF/C filter plate was bottom-sealed. The residual radioactivity on the filter membrane was detected by liquid scintillation counting.

[2] = biological target: T2, human α1-GABAA receptor (α1-GABAAR-HEK293 cells) (Homo sapiens, UniProt P14867+P18507); experiment: Whole-cell patch-clamp electrophysiology, positive allosteric modulatory activity on α1-GABAA receptor; type: cell-based; details: read-out: α1-GABAA positive allosteric modulatory activity
T2 construct: expressed in transfected cells
Excerpt: as §1, §2
(§3) The positive regulatory activity of the test drugs on the α1-GABAA receptor and the α2-GABAA receptor was detected by the electrophysiological method. The specific method was as follows:
(§4) Compound concentration setting: The final concentration of the compounds used for screening was 100 nM. For cell lines expressing the α1-GABAA receptor, the concentration of GABA was 0.05 to 0.07 μM (approximately EC2-4). For cell lines expressing the α2-GABAA receptor, the concentration of GABA was 0.10 to 0.11 μM (approximately EC7-8). Electrophysiological testing was performed using the whole-cell patch-clamp technique, which can refer to the method reported in the literature (Nickolls, S. A., et al. British Journal of Pharmacology, 2018, 175: 708-725). The composition of the extracellular solution (ECS) for electrophysiology was as follows: 150 mM NaCl, 5 mM KCl, 2.5 mM CaCl2, 1 mM MgCl2, 10 mM HEPES, and 10 mM glucose (pH 7.4). The formulation of the intracellular solution (ICS) for electrophysiology was as follows: 140 mM CsCl, 11 mM EGTA, 10 mM HEPES, 2 mM CaCl2, 1 mM MgCl2, 4 mM MgATP, and 2 mM TEA (pH 7.3). GABA (γ-aminobutyric acid) powder was prepared into a mother liquor with pure water, which was then diluted in ECS. The compound was first prepared into a 4 mM mother liquor with dimethyl sulfoxide, which was then gradually diluted in the corresponding concentration of GABA-ECS. The solutions were freshly prepared prior to electrophysiological testing.
(§5) Electrophysiological signal acquisition was performed using an EPC 10 amplifier and PatchMaster software (HEKA) or an Axon 700B amplifier and Clampex software (AXON). The recording electrode was made through a drawing process using borosilicate glass, with an electrode resistance of 4 to 6 MΩ. Extracellular administration was performed using the ALA-VC-8PG™ system. A single, independently growing cell was selected. After the glass electrode formed a good seal with the cell, the membrane was ruptured to form the whole-cell configuration. The cell membrane potential was clamped at −60 mV and recorded in Gap-free mode. During the test, the extracellular solution was first applied extracellularly for approximately 20 seconds. After the baseline (Iprebaseline) stabilized, the extracellular solution was switched to GABA-ECS. At this point, the current induced by GABA (Igaba) could be detected. After approximately 10 to 20 seconds, when the current stabilized, the extracellular solution was switched to a mixture of the compound and GABA-ECS. […]

[3] = biological target: T3, human α2-GABAA receptor (α2-GABAAR-HEK293 cells) (Homo sapiens, UniProt P18507+P47869); experiment: Whole-cell patch-clamp electrophysiology, positive allosteric modulatory activity on α2-GABAA receptor; type: cell-based; details: read-out: α2-GABAA positive allosteric modulatory activity
T3 construct: expressed in transfected cells
Excerpt: as §1, §2, §3, §4, §5

| SMILES | Ki [1] | activation at 0.1 µM [2] | activation at 0.1 µM [3] |
| --- | --- | --- | --- |
| CCn1cnc2c(-c3ccc(F)c(-c4cc5ccn(C)c(=O)c5cc4OC)c3)cnnc21 [Example 121, 6-(5-(7-Ethyl-7H-imidazo[4,5-c]pyridazin-4-yl)-2-fluorophenyl)-7-methoxy-2-methylisoquinolin-1(2H)-one] | 3.02 nM | -6% | 90% |
| CCn1cnc2c(-c3ccc(F)c(-c4cc5oc(C6CCOCC6)nc5cc4OC)c3)cnnc21 [Example 93, 6-(5-(7-Ethyl-7H-imidazo[4,5-c]pyridazin-4-yl)-2-fluorophenyl)-5-methoxy-2-(tetrahydro-2H-pyran-4-yl)benzo[d]oxazole] | 8.32 nM | 79% | 115% |
| CC[C@H]1Oc2cc(-c3cc(-c4cnnc5c4ncn5CC)ccc3F)c(OC)cc2N(C)C1=O (single isomer, unassigned) [Example 8] | 4.76 nM | 79% | 130% |
| CCn1cnc2c(-c3ccc(F)c(-c4cc5ccnnc5cc4OC)c3)cnnc21 [Example 112, 6-(5-(7-Ethyl-7H-imidazo[4,5-c]pyridazin-4-yl)-2-fluorophenyl)-7-methoxycinnoline] | 7.62 nM | 64% | 171% |
| CCn1cnc2c(-c3ccc(F)c(-c4cc5cn(C6CC6)nc5cc4OC)c3)cnnc21 [Example 114, 4-(3-(2-Cyclopropyl-6-methoxy-2H-indazol-5-yl)-4-fluorophenyl)-7-ethyl-7H-imidazo[4,5-c]pyridazine] | 9.97 nM | 68% | 107% |
| CCn1cnc2c(-c3ccc(F)c(-c4cc5cn(C6COC6)nc5cc4OC)c3)cnnc21 [Example 129, 7-Ethyl-4-(4-fluoro-3-(6-methoxy-2-(oxetan-3-yl)-2H-indazol-5-yl)phenyl)-7H-imidazo[4,5-c]pyridazine] | 3.23 nM | 56% | 128% |
| CCn1cnc2c(-c3ccc(F)c(-c4cc5cn(-c6nccn6C)nc5cc4OC)c3)cnnc21 [Example 78, 7-Ethyl-4-(4-fluoro-3-(6-methoxy-2-(1-methyl-1H-imidazol-2-yl)-2H-indazol-5-yl)phenyl)-7H-imidazo[4,5-c]pyridazine] | 3.91 nM | 10% | 110% |
| COc1cc2c(cc1-c1cc(-c3cnnc4c3ncn4C(C)C)ccc1F)oc(=O)n2C [Example 35, 6-(2-Fluoro-5-(7-isopropyl-7H-imidazo[4,5-c]pyridazin-4-yl)phenyl)-5-methoxy-3-methylbenzo[d]oxazol-2(3H)-one] | 7.73 nM | 80% | 134% |
| CCn1cnc2c(-c3ccc(F)c(-c4cc5cn(C(F)F)nc5cc4OC)c3)cnnc21 [Example 111, 4-(3-(2-(Difluoromethyl)-6-methoxy-2H-indazol-5-yl)-4-fluorophenyl)-7-ethyl-7H-imidazo[4,5-c]pyridazine] | 3.35 nM | 64% | 102% |
| CCn1cnc2c(-c3ccc(F)c(-c4ccc5c(nnn5C5CCOC5)c4COC)c3)cnnc21 (stereo not drawn) [Example 157, 7-Ethyl-4-(4-fluoro-3-(4-(methoxymethyl)-1-(tetrahydrofuran-3-yl)-1H-benzo[d][1,2,3]triazol-5-yl)phenyl)-7H-imidazo[4,5-c]pyridazine] | 23.3 nM | 50% | 99% |
| CCn1cnc2c(-c3ccc(F)c(-c4cc5c(cc4OC)N(C)C(=O)C(C)O5)c3)cnnc21 (stereo not drawn) [Example 26, 7-(5-(7-Ethyl-7H-imidazo[4,5-c]pyridazin-4-yl)-2-fluorophenyl)-6-methoxy-2,4-dimethyl-2H-benzo[b][1,4]oxazin-3(4H)-one] | 8.95 nM | 48% | 120% |
| CCn1cnc2c(-c3ccc(F)c(-c4ccc5c(nnn5C)c4COC)c3)cnnc21 [Example 16, 7-Ethyl-4-(4-fluoro-3-(4-(methoxymethyl)-1-methyl-1H-benzo[d][1,2,3]triazol-5-yl)phenyl)-7H-imidazo[4,5-c]pyridazine] | 11.6 nM | 38% | 104% |
| CCn1cnc2c(-c3ccc(F)c(-c4ccc5c(nnn5C)c4OC)c3)cnnc21 [Example 81, 7-Ethyl-4-(4-fluoro-3-(4-methoxy-1-methyl-1H-benzo[d][1,2,3]triazol-5-yl)phenyl)-7H-imidazo[4,5-c]pyridazine] | 2.34 nM | -25% | 83% |
| CCn1cnc2c(-c3ccc(F)c(-c4cc5sc(=O)n(C)c5cc4OC)c3)cnnc21 [Example 53, 6-(5-(7-Ethyl-7H-imidazo[4,5-c]pyridazin-4-yl)-2-fluorophenyl)-5-methoxy-3-methylbenzo[d]thiazol-2(3H)-one] | 3.78 nM | 21% | 94% |
| CCn1cnc2c(-c3ccc(F)c(-c4cc5cn(C6CCN(C7COC7)CC6)nc5cc4OC)c3)cnnc21 [Example 77, 7-Ethyl-4-(4-fluoro-3-(6-methoxy-2-(1-(oxetan-3-yl)piperidin-4-yl)-2H-indazol-5-yl)phenyl)-7H-imidazo[4,5-c]pyridazine] | 1.13 nM | 66% | 104% |
